Assay results reported in BigSolDB 2.1.

COCCOC(=O)C1=C(C)NC(C)=C(C(=O)OC(C)C)C1c1cccc([N+](=O)[O-])c1 (centres undefined)
solubility (mole fraction)
Details	278.15 K	283.15 K	288.15 K	293.15 K	298.15 K	303.15 K	308.15 K	313.15 K	318.15 K
in THF	0.0141	0.016	0.0181	0.0203	0.0229	0.0259	0.0291	0.0324	0.0366
in acetone	0.012	0.0136	0.0154	0.0171	0.0193	0.0217	0.0241	0.027	0.0295
in acetonitrile	0.00161	0.00191	0.00225	0.00267	0.00311	0.00365	0.00437	0.00503	0.00587
in cyclohexanone	0.0145	0.0164	0.0184	0.021	0.0239	0.0266	0.0297	0.0334	0.0375
in ethanol	0.014	0.0158	0.0176	0.0198	0.0221	0.0247	0.0272	0.0303	0.034
in ethyl acetate	0.00127	0.00145	0.0017	0.00192	0.00221	0.00248	0.0028	0.0032	0.00364
in ethyl formate	0.00152	0.0017	0.00192	0.00218	0.00247	0.00275	0.00305	0.00341	0.00381
in isobutanol	0.00706	0.00811	0.00923	0.0107	0.0122	0.0137	0.0156	0.0179	0.0201
in isopentanol	0.00609	0.00711	0.00815	0.00953	0.011	0.0126	0.0142	0.0166	0.0188
in isopropanol	0.0117	0.0132	0.0147	0.0163	0.0183	0.0204	0.0225	0.0249	0.0278
in methanol	0.0157	0.0178	0.0201	0.0229	0.0259	0.0289	0.0327	0.0364	0.0411
in methyl acetate	0.00456	0.00506	0.00573	0.00647	0.00718	0.00813	0.00898	0.00997	0.0112
in n-butanol	0.0106	0.0117	0.013	0.0145	0.0161	0.0177	0.0195	0.0217	0.0237
in n-pentanol	0.00802	0.00919	0.0103	0.0116	0.0131	0.0145	0.0162	0.018	0.0203
in n-propanol	0.011	0.0123	0.0139	0.0155	0.0173	0.0195	0.0216	0.0241	0.0269
in sec-butanol	0.00977	0.0111	0.0122	0.0134	0.0149	0.0167	0.0181	0.0198	0.022
